≈ marks a conversion by molar mass, not a printed value. Square brackets hold non-standard residues; d marks the D form. Peptide text beside a SMILES is read from it. ξ: configuration not given here. ξK = NCCCCC(N)C(=O)O
Tests used:
[1] = test system: Erythrocyte; assay: Hemolytic activity against mouse RBC measured after 1 hrs; type: toxicity, cell-based
[2] = test system: Klebsiella pneumoniae; assay: Antibacterial activity against Klebsiella pneumoniae ATCC 700603 assessed as growth inhibition measured after 18 to 24 hrs by CLSI based broth microdilution method; type: functional; settings: time 18-24 hrs
[3] = test system: Staphylococcus aureus; assay: Antibacterial activity against Staphylococcus aureus ATCC 25923 assessed as growth inhibition measured after 18 to 24 hrs by CLSI based broth microdilution method; type: functional; settings: time 18-24 hrs
[4] = test system: Pseudomonas aeruginosa; assay: Antibacterial activity against Pseudomonas aeruginosa ATCC 27853 assessed as growth inhibition measured after 18 to 24 hrs by CLSI based broth microdilution method; type: functional; settings: time 18-24 hrs
[5] = test system: Escherichia coli; assay: Antibacterial activity against Escherichia coli ATCC 25922 assessed as growth inhibition measured after 18 to 24 hrs by CLSI based broth microdilution method; type: functional; settings: time 18-24 hrs
[6] = test system: Bacillus subtilis; assay: Antibacterial activity against Bacillus subtilis ATCC 23857 assessed as growth inhibition measured after 18 to 24 hrs by CLSI based broth microdilution method; type: functional; settings: time 18-24 hrs

SMILES	MHC10 [1] [µM]	MIC [2] [µM]	MIC [3] [µM]	MIC [4] [µM]	MIC [5] [µM]	MIC [6] [µM]
CC[C@H](C)[C@H](NC(=O)[C@@H]1CCCN1C(=O)[C@H](CC(C)C)NC(=O)[C@@H](N)CCC(=O)O)C(=O)N[C@H](C(=O)N[C@@H](C)C(=O)N[C@@H](CCCCN)C(=O)N[C@@H](CC(C)C)C(=O)N[C@@H](CC(C)C)C(=O)N[C@@H](CO)C(=O)NCC(=O)N[C@@H](CC(C)C)C(=O)N[C@@H](CC(C)C)C(N)=O)C(C)C (H-ELPIVAKLLSGLL-NH2)	> 256	> 128	> 128	> 128	> 128	> 128
CC[C@H](C)[C@H](NC(=O)[C@@H]1CCCN1C(=O)[C@H](CCC(=O)O)NC(=O)[C@@H](N)Cc1ccccc1)C(=O)N[C@H](C(=O)N[C@@H](C)C(=O)N[C@@H](CCCCN)C(=O)N[C@@H](CC(C)C)C(=O)N[C@@H](CC(C)C)C(=O)N[C@@H](CO)C(=O)NCC(=O)N[C@@H](CC(C)C)C(=O)N[C@@H](CC(C)C)C(N)=O)C(C)C (H-FEPIVAKLLSGLL-NH2)	> 256	> 128	> 128	> 128	> 128	> 128
CC[C@H](C)[C@H](NC(=O)[C@H](CCC(=O)O)NC(=O)[C@H](CC(C)C)NC(=O)[C@@H](N)Cc1ccccc1)C(=O)N[C@H](C(=O)N[C@@H](C)C(=O)N[C@@H](CCCCN)C(=O)N[C@@H](CC(C)C)C(=O)N[C@@H](CC(C)C)C(=O)N[C@@H](CO)C(=O)NCC(=O)N[C@@H](CC(C)C)C(=O)N[C@@H](CC(C)C)C(N)=O)C(C)C (H-FLEIVAKLLSGLL-NH2)	16.06	> 128	16 (≈ 22.6 µg/mL)	> 128	> 128	16 (≈ 22.6 µg/mL)
CC(C)C[C@H](NC(=O)[C@H](CC(C)C)NC(=O)CNC(=O)[C@H](CO)NC(=O)[C@H](CC(C)C)NC(=O)[C@H](CC(C)C)NC(=O)[C@H](CCCCN)NC(=O)[C@H](C)NC(=O)[C@@H](NC(=O)[C@H](CCC(=O)O)NC(=O)[C@@H]1CCCN1C(=O)[C@H](CC(C)C)NC(=O)[C@@H](N)Cc1ccccc1)C(C)C)C(N)=O (H-FLPEVAKLLSGLL-NH2)	> 256	> 128	> 128	> 128	64 (≈ 89.5 µg/mL)	> 128
CC[C@H](C)[C@H](NC(=O)[C@@H]1CCCN1C(=O)[C@H](CC(C)C)NC(=O)[C@@H](N)Cc1ccccc1)C(=O)N[C@@H](CCC(=O)O)C(=O)N[C@@H](C)C(=O)N[C@@H](CCCCN)C(=O)N[C@@H](CC(C)C)C(=O)N[C@@H](CC(C)C)C(=O)N[C@@H](CO)C(=O)NCC(=O)N[C@@H](CC(C)C)C(=O)N[C@@H](CC(C)C)C(N)=O (H-FLPIEAKLLSGLL-NH2)	> 256	> 128	> 128	> 128	> 128	> 128
CC[C@H](C)[C@H](NC(=O)[C@@H]1CCCN1C(=O)[C@H](CC(C)C)NC(=O)[C@@H](N)Cc1ccccc1)C(=O)N[C@H](C(=O)N[C@@H](C)C(=O)N[C@@H](CCC(=O)O)C(=O)N[C@@H](CC(C)C)C(=O)N[C@@H](CC(C)C)C(=O)N[C@@H](CO)C(=O)NCC(=O)N[C@@H](CC(C)C)C(=O)N[C@@H](CC(C)C)C(N)=O)C(C)C (H-FLPIVAELLSGLL-NH2)	> 256	> 128	> 128	> 128	> 128	> 128
CC[C@H](C)[C@H](NC(=O)[C@@H]1CCCN1C(=O)[C@H](CC(C)C)NC(=O)[C@@H](N)Cc1ccccc1)C(=O)N[C@H](C(=O)N[C@@H](C)C(=O)N[C@@H](CCCCN)C(=O)N[C@@H](CCC(=O)O)C(=O)N[C@@H](CC(C)C)C(=O)N[C@@H](CO)C(=O)NCC(=O)N[C@@H](CC(C)C)C(=O)N[C@@H](CC(C)C)C(N)=O)C(C)C (H-FLPIVAKELSGLL-NH2)	> 256	> 128	> 128	> 128	> 128	> 128
CC[C@H](C)[C@H](NC(=O)[C@@H]1CCCN1C(=O)[C@H](CC(C)C)NC(=O)[C@@H](N)Cc1ccccc1)C(=O)N[C@H](C(=O)N[C@@H](C)C(=O)N[C@@H](CCCCN)C(=O)N[C@@H](CC(C)C)C(=O)N[C@@H](CCC(=O)O)C(=O)N[C@@H](CO)C(=O)NCC(=O)N[C@@H](CC(C)C)C(=O)N[C@@H](CC(C)C)C(N)=O)C(C)C (H-FLPIVAKLESGLL-NH2)	> 256	> 128	> 128	> 128	> 128	> 128
CC[C@H](C)[C@H](NC(=O)[C@@H]1CCCN1C(=O)[C@H](CC(C)C)NC(=O)[C@@H](N)Cc1ccccc1)C(=O)N[C@H](C(=O)N[C@@H](C)C(=O)N[C@@H](CCCCN)C(=O)N[C@@H](CC(C)C)C(=O)N[C@@H](CC(C)C)C(=O)N[C@@H](CCC(=O)O)C(=O)NCC(=O)N[C@@H](CC(C)C)C(=O)N[C@@H](CC(C)C)C(N)=O)C(C)C (H-FLPIVAKLLEGLL-NH2)	69.93	> 128	16 (≈ 22.8 µg/mL)	> 128	> 128	16 (≈ 22.8 µg/mL)
CC[C@H](C)[C@H](NC(=O)[C@@H]1CCCN1C(=O)[C@H](CC(C)C)NC(=O)[C@@H](N)Cc1ccccc1)C(=O)N[C@H](C(=O)N[C@@H](C)C(=O)N[C@@H](CCCCN)C(=O)N[C@@H](CC(C)C)C(=O)N[C@@H](CC(C)C)C(=O)N[C@@H](CCCCN)C(=O)NCC(=O)N[C@@H](CC(C)C)C(=O)N[C@@H](CC(C)C)C(N)=O)C(C)C (H-FLPIVAKLLKGLL-NH2)	27.66	> 128	8 (≈ 11.4 µg/mL)	> 128	> 128	4 (≈ 5.7 µg/mL)
CC[C@H](C)[C@H](NC(=O)[C@@H]1CCCN1C(=O)[C@H](CC(C)C)NC(=O)[C@@H](N)Cc1ccccc1)C(=O)N[C@H](C(=O)N[C@@H](C)C(=O)N[C@@H](CCCCN)C(=O)N[C@@H](CC(C)C)C(=O)N[C@@H](CC(C)C)C(=O)N[C@@H](CO)C(=O)N[C@@H](CCC(=O)O)C(=O)N[C@@H](CC(C)C)C(=O)N[C@@H](CC(C)C)C(N)=O)C(C)C (H-FLPIVAKLLSELL-NH2)	73.97	> 128	16 (≈ 23.3 µg/mL)	> 128	> 128	8 (≈ 11.6 µg/mL)
CC[C@H](C)[C@H](NC(=O)[C@@H]1CCCN1C(=O)[C@H](CC(C)C)NC(=O)[C@@H](N)Cc1ccccc1)C(=O)N[C@H](C(=O)N[C@@H](C)C(=O)N[C@@H](CCCCN)C(=O)N[C@@H](CC(C)C)C(=O)N[C@@H](CC(C)C)C(=O)N[C@@H](CO)C(=O)NCC(=O)N[C@@H](CCC(=O)O)C(=O)N[C@@H](CC(C)C)C(N)=O)C(C)C (H-FLPIVAKLLSGEL-NH2)	> 256	> 128	> 128	> 128	> 128	> 128
CC[C@H](C)[C@H](NC(=O)[C@@H]1CCCN1C(=O)[C@H](CC(C)C)NC(=O)[C@@H](N)Cc1ccccc1)C(=O)N[C@H](C(=O)N[C@@H](C)C(=O)N[C@@H](CCCCN)C(=O)N[C@@H](CC(C)C)C(=O)N[C@@H](CC(C)C)C(=O)N[C@@H](CO)C(=O)NCC(=O)N[C@@H](CC(C)C)C(=O)N[C@@H](CCC(=O)O)C(N)=O)C(C)C (H-FLPIVAKLLSGLE-NH2)	> 256	> 128	> 128	> 128	> 128	> 128
CC[C@H](C)[C@H](NC(=O)[C@@H]1CCCN1C(=O)[C@H](CC(C)C)NC(=O)[C@@H](N)Cc1ccccc1)C(=O)N[C@H](C(=O)N[C@@H](CCC(=O)O)C(=O)N[C@@H](CCCCN)C(=O)N[C@@H](CC(C)C)C(=O)N[C@@H](CC(C)C)C(=O)N[C@@H](CO)C(=O)NCC(=O)N[C@@H](CC(C)C)C(=O)N[C@@H](CC(C)C)C(N)=O)C(C)C (H-FLPIVEKLLSGLL-NH2)	> 256	> 128	> 128	> 128	64 (≈ 92.2 µg/mL)	> 128
CC(C)C[C@H](NC(=O)[C@H](CC(C)C)NC(=O)CNC(=O)[C@H](CCC(=O)O)NC(=O)[C@H](CC(C)C)NC(=O)[C@H](CC(C)C)NC(=O)[C@H](CCCCN)NC(=O)[C@H](CCCCN)NC(=O)[C@@H](NC(=O)[C@H](CCCCN)NC(=O)[C@@H]1CCCN1C(=O)[C@H](CC(C)C)NC(=O)[C@@H](N)Cc1ccccc1)C(C)C)C(N)=O (H-FLPKVKKLLEGLL-NH2)	> 256	64 (≈ 95.8 µg/mL)	128 (≈ 192 µg/mL)	32 (≈ 47.9 µg/mL)	16 (≈ 24 µg/mL)	128 (≈ 192 µg/mL)
CC(C)C[C@H](NC(=O)[C@H](CC(C)C)NC(=O)C(CCCCN)NC(=O)[C@H](CCC(=O)O)NC(=O)[C@H](CC(C)C)NC(=O)[C@H](CC(C)C)NC(=O)[C@H](CCCCN)NC(=O)[C@H](CCCCN)NC(=O)[C@@H](NC(=O)[C@H](CCCCN)NC(=O)[C@@H]1CCCN1C(=O)[C@H](CC(C)C)NC(=O)[C@@H](N)Cc1ccccc1)C(C)C)C(N)=O (some centres not stated) (H-FLPKVKKLLE[ξK]LL-NH2)	> 256	16 (≈ 25.1 µg/mL)	32 (≈ 50.2 µg/mL)	16 (≈ 25.1 µg/mL)	8 (≈ 12.5 µg/mL)	32 (≈ 50.2 µg/mL)
CC(C)C[C@H](NC(=O)[C@H](CC(C)C)NC(=O)[C@H](CCC(=O)O)NC(=O)[C@H](CCCCN)NC(=O)[C@H](CC(C)C)NC(=O)[C@H](CC(C)C)NC(=O)[C@H](CCCCN)NC(=O)[C@H](CCCCN)NC(=O)[C@@H](NC(=O)[C@H](CCCCN)NC(=O)[C@@H]1CCCN1C(=O)[C@H](CC(C)C)NC(=O)[C@@H](N)Cc1ccccc1)C(C)C)C(N)=O (H-FLPKVKKLLKELL-NH2)	> 256	16 (≈ 25.1 µg/mL)	32 (≈ 50.2 µg/mL)	16 (≈ 25.1 µg/mL)	16 (≈ 25.1 µg/mL)	8 (≈ 12.5 µg/mL)

Source: ChEMBL document CHEMBL5108051, “Improving the Antimicrobial Performance of Amphiphilic Cationic Antimicrobial Peptides Using Glutamic Acid Full-Scan and Positive Charge Compensation Strategies” (J Med Chem, 2022)
